According to patent US20160122386A1, “V1A RECEPTOR AGONISTS” (FERRING B.V., priority 2014, published 2016):
Where two headings read alike, the source gives them in different places. Starred links: 1 amine or outer side, 2 acyl side, 3 side chain; linkers in the order of their positions; H or OH if unused. Positions of bridges follow the written chain, without caps; N, C: chain ends. Non-standard residues stand in square brackets, D forms with d. Residues, ends and D or L forms follow the SMILES beside them. Chains are numbered I, II in the order given. *: point of attachment. Phe(4-Cl) = N[C@@H](Cc1ccc(Cl)cc1)C(=O)O; X2 = N=C(N)N[C@@H](CCCCN[*:1])C(=O)[*:2]; dPhe(4-Cl) = N[C@H](Cc1ccc(Cl)cc1)C(=O)O; isoGln = NC(=O)[C@H](CCC(=O)[*:2])N[*:1]; εLys = N[C@@H](CCCCN[*:1])C(=O)[*:2]; 3Pal = N[C@@H](Cc1cccnc1)C(=O)O; Orn = NCCC[C@H](N)C(=O)O; Dab = NCC[C@H](N)C(=O)O; PhAc = O=C(Cc1ccccc1)*

Target: T1, human V1aR (Homo sapiens, UniProt P37288)
T1 construct: expressed in transfected cells
Experiment: Agonist activity at vasopressin V1a receptors, cell-based FLIPR calcium assay
Details: for Emax: read-out: Efficacy Avg. (%)
Protocol: Efficacy (% MPE) is also determined as the percentage of maximal possible effect. This agonist assay utilizes cells from a stable cell line (HEK-flpin) expressing the vasopressin V1a receptor. Intracellular calcium increase in response to agonist is measured through real-time fluorescence of an intracellular calcium-sensitive dye. Cells are exposed to varying concentrations of test agonist compounds whereupon release of intracellular calcium is measured to determine the agonist potency and efficacy.
The cell line stably expresses the lacZ-Zeocin™ fusion gene and is designed for use with the Flp-In™ expression vector containing the gene of interest and the Flp recombinase expression plasmid, pOG44. The cell line contains a single integrated Flp Recombination Target (FRT) site from pFRT/lacZeo or pFRT/lacZeo2. To generate the HEK-flpin cell line stably expressing the human V1aR, the cells were co-transfected with the Flp-In™ expression vector containing the gene of interest (pcDNA5/FRT-hV1aR) and the Flp recombinase expression plasmid pOG44. Flp recombinase mediates insertion of the Flp-In™ expression vector into the genome at the integrated FRT site through site-specific DNA recombination. Stable cell lines expressing the hV1aR from the Flp-In™ expression vector can be generated by selection using hygromycin B. See Life Technologies/Invitrogen manual, Growth and Maintenance of Flp-In™ Cell Lines, Version E, published Feb.
Efficacy of this compound was set to be 100%. A stock solution of 5 mM was made up in DMSO and stored at −20° C.
HEK-flpin-hV1aR, cmcqV1aR, dV1aR and pV1aR cells were maintained in DMEM containing 10% (v/v) FBS-HI, 4 mM GlutaMAX™-I, 25 μg/mL Hygromycin B at 37° C. under 5% CO2 in a humidified atmosphere. Subculture was achieved by splitting semi-confluent cultures 1:3 to 1:6.
All compounds were made up in 100% DMSO at 10 mM stock concentrations and stored at −20° C. The compounds were allowed to thaw just before the assay. […] Typical dilution procedure of 10× final assay concentration involved a 1:100 top dilution (e.g., 2 μl Stock into 198 μl dilution medium) followed by half-log serial dilutions (e.g., 25.3 μl into 54.7 μl dilution medium supplemented with 1% DMSO (v/v)). (Dilution media consisted of phenol-red free DMEM containing 10% FBS-HI, 4 mM GlutaMAX™-I). […] The final DMSO concentration in the assay was 0.1%.
Loading Buffer was prepared by dissolving 1 vial of Calcium 4 Assay reagent in 100 mL of 1× HBSS-20 mM Hepes buffer.
The cells were loaded with Loading Buffer as follows. Cell plates were removed from the incubator and 20 μl of Loading Buffer containing probenecid (2.5 mM) was added to each well. The cells were incubated for 1 hr at 37° C. under 5% CO2 in a humidified atmosphere. The calcium image was obtained as follows.
The cell plates were transferred to FLIPR Tetra, along with a 384 well V-bottom plate pre-loaded with half-log concentrations of test compounds at 10× final test concentrations. The remaining steps of the assay were carried forward by FLIPR Tetra. A baseline reading was taken at 1-second (s) intervals for 5s followed by the addition of 5 μl of 10× compounds (test, reference, or Blank). The agonist-induced fluorescence signal was then measured for 180 s with initial 120 readings at 1-second intervals followed by 20 readings at 3-second intervals. Overall, each well in the FLIPR assay was composed of the following components in a total volume of 50 μl: 20 μl cells; 20 μl Calcium 4 Loading Buffer; […] 10× test or reference compound.

T1 sequence (P37288 whole entry): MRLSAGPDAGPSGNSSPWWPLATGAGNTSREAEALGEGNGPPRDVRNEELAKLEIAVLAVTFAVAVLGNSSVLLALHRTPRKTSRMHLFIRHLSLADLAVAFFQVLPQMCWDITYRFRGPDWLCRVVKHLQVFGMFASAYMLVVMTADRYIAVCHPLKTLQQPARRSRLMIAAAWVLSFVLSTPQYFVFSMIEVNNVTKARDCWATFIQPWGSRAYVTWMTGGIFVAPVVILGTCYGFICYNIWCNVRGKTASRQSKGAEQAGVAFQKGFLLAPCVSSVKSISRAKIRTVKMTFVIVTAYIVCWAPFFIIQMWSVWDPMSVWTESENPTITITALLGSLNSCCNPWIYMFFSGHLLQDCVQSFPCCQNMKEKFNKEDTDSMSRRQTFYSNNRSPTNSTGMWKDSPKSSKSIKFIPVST

EC50 (HEK-flpin cells stably expressing hV1aR, intracellular calcium fluorescence, averaged, read-out: EC50 (Avg)) [nM]	Structure (SMILES)	EC50 [nM]	Emax [%]
–	CC[C@H](C)[C@@H]1NC(=O)[C@H](Cc2ccccc2)NC(=O)[C@@H](N)CSSC[C@@H](C(=O)N2CCC[C@H]2C(=O)N[C@@H](CCCNC(=O)[C@@H](N)CCCCNC(=O)CC[C@H](NC(=O)[C@H](CCCNC(=N)N)NC(=O)[C@@H]2CCCN2C(=O)[C@H](CCCNC(=N)N)NC(=O)[C@H](CC(N)=O)NC(=O)[C@H](Cc2cccnc2)NC(=O)[C@H](Cc2ccccc2)NC(=O)[C@@H](Cc2ccc(OC)cc2)NC(=O)Cc2ccccc2)C(N)=O)C(=O)NCC(N)=O)NC(=O)[C@H](CC(N)=O)NC(=O)[C@H](CCC(N)=O)NC1=O [Compound 24] (I: H-CFIQNCP[Orn]G-NH2 / II: PhAc-[dY](Me)F[3Pal]NRPR[isoGln][εLys]; disulfide I:1-I:6; amide I:8-II:C)	2.3	33
–	CC[C@H](C)[C@@H]1NC(=O)[C@H](Cc2ccccc2)NC(=O)[C@@H](N)CSSC[C@@H](C(=O)N2CCC[C@H]2C(=O)N[C@@H](CCCNC(=O)[C@@H](N)CCCCNC(=O)CC[C@H](NC(=O)[C@H](CCCNC(=N)N)NC(=O)[C@@H]2CCCN2C(=O)[C@H](CCCNC(=N)N)NC(=O)[C@H](CC(N)=O)NC(=O)[C@H](CCC(N)=O)NC(=O)[C@H](Cc2ccccc2)NC(=O)[C@@H](Cc2ccc(Cl)cc2)NC(=O)Cc2ccccc2)C(N)=O)C(=O)NCC(N)=O)NC(=O)[C@H](CC(N)=O)NC(=O)[C@H](CCC(N)=O)NC1=O [Compound 25] (I: H-CFIQNCP[Orn]G-NH2 / II: PhAc-[dPhe(4-Cl)]FQNRPR[isoGln][εLys]; disulfide I:1-I:6; amide I:8-II:C)	1.4	49
–	CC[C@H](C)[C@@H]1NC(=O)[C@H](Cc2ccccc2)NC(=O)[C@@H](N)CSSC[C@@H](C(=O)N2CCC[C@H]2C(=O)N[C@@H](CCCNC(=O)[C@H](CCCCNC(=O)CC[C@H](NC(=O)[C@H](CCCNC(=N)N)NC(=O)[C@@H]2CCCN2C(=O)[C@H](CCCNC(=N)N)NC(=O)[C@H](CC(N)=O)NC(=O)[C@H](CCC(N)=O)NC(=O)[C@H](Cc2ccccc2)NC(=O)[C@@H](Cc2ccc(OC)cc2)NC(=O)Cc2ccccc2)C(N)=O)NC(=N)N)C(=O)NCC(N)=O)NC(=O)[C@H](CC(N)=O)NC(=O)[C@H](CCC(N)=O)NC1=O [Compound 26] (I: H-CFIQNCP[Orn]G-NH2 / II: PhAc-[dY](Me)FQNRPR[isoGln][X2]; disulfide I:1-I:6; amide I:8-II:C)	0.93	32
–	CC[C@H](C)[C@@H]1NC(=O)[C@H](Cc2ccccc2)NC(=O)[C@@H](N)CSSC[C@@H](C(=O)N2CCC[C@H]2C(=O)N[C@@H](CCCNC(=O)[C@@H](N)CCCCNC(=O)CC[C@H](NC(=O)[C@H](CCCNC(=N)N)NC(=O)[C@@H]2CCCN2C(=O)[C@H](CCCNC(=N)N)NC(=O)[C@H](CC(N)=O)NC(=O)[C@H](CCC(N)=O)NC(=O)[C@H](Cc2ccccc2)NC(=O)[C@H](Cc2ccc(Cl)cc2)NC(=O)Cc2ccccc2)C(N)=O)C(=O)NCC(N)=O)NC(=O)[C@H](CC(N)=O)NC(=O)[C@H](CCC(N)=O)NC1=O [Compound 27] (I: H-CFIQNCP[Orn]G-NH2 / II: PhAc-[Phe(4-Cl)]FQNRPR[isoGln][εLys]; disulfide I:1-I:6; amide I:8-II:C)	1	70
–	CC[C@H](C)[C@@H]1NC(=O)[C@H](Cc2ccccc2)NC(=O)[C@@H](N)CSSC[C@@H](C(=O)N2CCC[C@H]2C(=O)N[C@@H](CCCNC(=O)[C@@H](N)CCCCNC(=O)CC[C@H](NC(=O)[C@H](CCCNC(=N)N)NC(=O)[C@@H]2CCCN2C(=O)[C@H](C)NC(=O)[C@H](CC(N)=O)NC(=O)[C@H](CCC(N)=O)NC(=O)[C@H](Cc2ccccc2)NC(=O)[C@@H](Cc2ccc(OC)cc2)NC(=O)Cc2ccccc2)C(N)=O)C(=O)NCC(N)=O)NC(=O)[C@H](CC(N)=O)NC(=O)[C@H](CCC(N)=O)NC1=O [Compound 28] (I: H-CFIQNCP[Orn]G-NH2 / II: PhAc-[dY](Me)FQNAPR[isoGln][εLys]; disulfide I:1-I:6; amide I:8-II:C)	1.2	44
–	CC[C@H](C)[C@@H]1NC(=O)[C@H](Cc2ccccc2)NC(=O)[C@@H](N)CSSC[C@@H](C(=O)N2CCC[C@H]2C(=O)N[C@@H](CCNC(=O)[C@H](CCCCNC(=O)CC[C@H](NC(=O)[C@H](CCCNC(=N)N)NC(=O)[C@@H]2CCCN2C(=O)[C@H](C)NC(=O)[C@H](CC(N)=O)NC(=O)[C@H](CCC(N)=O)NC(=O)[C@H](Cc2ccccc2)NC(=O)[C@@H](Cc2ccc(OC)cc2)NC(=O)Cc2ccccc2)C(N)=O)NC(=N)N)C(=O)NCC(N)=O)NC(=O)[C@H](CC(N)=O)NC(=O)[C@H](CCC(N)=O)NC1=O [Compound 29] (I: H-CFIQNCP[Dab]G-NH2 / II: PhAc-[dY](Me)FQNAPR[isoGln][X2]; disulfide I:1-I:6 (inferred); amide I:8-II:C (inferred))	1.2	39
–	CC[C@H](C)[C@@H]1NC(=O)[C@H](Cc2ccccc2)NC(=O)[C@@H](O)CSSC[C@@H](C(=O)N2CCC[C@H]2C(=O)N[C@@H](CCNC(=O)[C@@H](N)CCCCNC(=O)CC[C@H](NC(=O)[C@H](CCCNC(=N)N)NC(=O)[C@@H]2CCCN2C(=O)[C@H](C)NC(=O)[C@H](CC(N)=O)NC(=O)[C@H](CCC(N)=O)NC(=O)[C@H](Cc2ccccc2)NC(=O)[C@@H](Cc2ccc(OC)cc2)NC(=O)Cc2ccccc2)C(N)=O)C(=O)NCC(N)=O)NC(=O)[C@H](CC(N)=O)NC(=O)[C@H](CCC(N)=O)NC1=O [Compound 30]	1.1	50
–	CC[C@H](C)[C@@H]1NC(=O)[C@H](Cc2ccccc2)NC(=O)[C@@H](O)CSSC[C@@H](C(=O)N2CCC[C@H]2C(=O)N[C@@H](CCNC(=O)[C@@H](N)CCCCNC(=O)CC[C@H](NC(=O)[C@H](CCCNC(=N)N)NC(=O)[C@@H]2CCCN2C(=O)[C@H](CCCNC(=N)N)NC(=O)[C@H](CC(N)=O)NC(=O)[C@H](CCC(N)=O)NC(=O)[C@H](Cc2ccccc2)NC(=O)[C@@H](Cc2ccc(OC)cc2)NC(=O)Cc2ccccc2)C(N)=O)C(=O)NCC(N)=O)NC(=O)[C@H](CC(N)=O)NC(=O)[C@H](CCC(N)=O)NC1=O [Compound 31]	0.83	63
–	CC[C@H](C)[C@@H]1NC(=O)[C@H](Cc2ccccc2)NC(=O)[C@@H](O)CSSC[C@@H](C(=O)N2CCC[C@H]2C(=O)N[C@@H](CCNC(=O)[C@@H](N)CCCCNC(=O)CC[C@H](NC(=O)[C@H](CCCNC(=N)N)NC(=O)[C@@H]2CCCN2C(=O)[C@H](CCCCN)NC(=O)[C@H](CC(N)=O)NC(=O)[C@H](CCC(N)=O)NC(=O)[C@H](Cc2ccccc2)NC(=O)[C@@H](Cc2ccc(OC)cc2)NC(=O)Cc2ccccc2)C(N)=O)C(=O)NCC(N)=O)NC(=O)[C@H](CC(N)=O)NC(=O)[C@H](CCC(N)=O)NC1=O [Compound 32]	1	56
1.1	CC[C@H](C)[C@@H]1NC(=O)[C@H](Cc2ccccc2)NC(=O)[C@@H](O)CSSC[C@@H](C(=O)N2CCC[C@H]2C(=O)N[C@@H](CCNC(=O)[C@@H](N)CCCCNC(=O)CC[C@H](NC(=O)[C@H](CCCNC(=N)N)NC(=O)[C@@H]2CCCN2C(=O)[C@H](CCCCN)NC(=O)[C@H](CC(N)=O)NC(=O)[C@H](CCC(N)=O)NC(=O)[C@H](Cc2ccccc2)NC(=O)[C@@H](Cc2ccc(OC)cc2)NC(=O)CC(C)C)C(N)=O)C(=O)NCC(N)=O)NC(=O)[C@H](CC(N)=O)NC(=O)[C@H](CCC(N)=O)NC1=O [Compound 33]	–	50
